Data: patent US7304064B2, “1-[(indol-3-yl)carbonyl]piperazine derivatives” (N.V. Organon, priority 2002, dated 2007)
Where two headings read alike, the source gives them in different places.

Columns and labels:
[1] = target: T1, human CB1 receptor (Homo sapiens, UniProt P21554); test: In-vitro determination of efficacy and potency at the human CB1 receptor expressed in CHO cells (luciferase reporter); format: cell-based
T1 construct: expressed in transfected cells; host or cells: CHO (Chinese Hamster Ovary) cells

[2] = test system: Mice; test: Tail flick latency in mice; format: in vivo; details: Mus musculus, iv, administered intravenously, ED50 calculated at Tmax, read-out: ED50 (increase of tail flick latency)
Experimental: Mice were trained to sit still in a tail flick apparatus (Ugo Basile, Italy) whilst tail flick latency was measured. The tail was exposed to a focused beam of radiant heat at a point approximately 2.5 cm from the tip. Tail flick latency was defined as the interval between the appliance of the thermal stimulus and withdrawal of the tail. A 12 second cut-off was employed to prevent tissue damage. Four groups of eight mice were treated with vehicle or one of three doses of the test compound, administered intravenously (vehicle: saline 9 g/l; injection volume 10 ml/kg). Tail flick latency was measured before administration of the test compound and at regular intervals (typically 20, 40 and 60 minutes) after compound administration. The ED50 was calculated at Tmax.

[3] = CHO cells expressing the human CB1 receptor and a luciferase reporter gene, 5 hours incubation, read-out: pEC50 (converted)

T1 sequence (P21554 whole entry): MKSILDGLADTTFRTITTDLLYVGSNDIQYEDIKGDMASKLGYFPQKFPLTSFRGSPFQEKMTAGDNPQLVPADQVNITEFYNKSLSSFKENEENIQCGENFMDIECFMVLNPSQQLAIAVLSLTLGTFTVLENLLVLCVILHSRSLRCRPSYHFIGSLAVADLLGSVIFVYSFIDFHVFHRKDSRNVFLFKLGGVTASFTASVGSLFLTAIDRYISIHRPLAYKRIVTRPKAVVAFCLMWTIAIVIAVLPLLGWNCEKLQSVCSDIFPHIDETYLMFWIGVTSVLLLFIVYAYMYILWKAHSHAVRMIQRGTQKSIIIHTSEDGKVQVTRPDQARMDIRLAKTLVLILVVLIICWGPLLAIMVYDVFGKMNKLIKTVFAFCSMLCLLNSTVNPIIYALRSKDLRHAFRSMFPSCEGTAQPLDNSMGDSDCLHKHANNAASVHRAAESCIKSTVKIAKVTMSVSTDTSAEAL

SMILES | EC50 [1] | ED50 [2] | EC50 [1, 3]
CCN1CCN(C(=O)c2cn(CC3CC=CCC3)c3c(OC)cccc23)CC1 (centres unmarked) [Example 5Q, 1-{[1-(Cyclohex-3-enylmethyl)-7-methoxy-1H-indol-3-yl]carbonyl}-4-ethylpiperazine] | 200 nM |  | 
CCN1C(C)CN(C(=O)c2cn(CC3CCCCC3)c3c(OC)cccc23)CC1C (centres unmarked) [Example 14, 1-{[1-(Cyclohexylmethyl)-7-methoxy-1H-indol-3-yl]carbonyl}-3,5-dimethyl-4-ethylpiperazine] | 10 nM | < 5 µmol/kg | 
COc1cccc2c(C(=O)N3CCN4CCCC[C@H]4C3)cn(CC3CCCC3)c12 [Example 17D, (S)-2-{[1-(Cyclopentylmethyl)-7-methoxy-1H-indol-3-yl]carbonyl}-octahydro-2H-pyrido[1,2-a]pyrazine] |  | < 5 µmol/kg | 31.6 nM
CCN1CCN(C(=O)c2cn(CC3CCCCC3)c3c(F)cccc23)CC1 [Example 5B, 1-{[1-(Cyclohexylmethyl)-7-fluoro-1H-indol-3-yl]carbonyl}-4-ethylpiperazine] | 100 nM |  | 
COc1cccc2c(C(=O)N3CCN(C)[C@@H](C)C3)cn(CC3CCCCC3)c12 [Example 15O, (S)-1-{[1-(cyclohexylmethyl)-7-methoxy-1H-indol-3-yl]carbonyl}-3,4-dimethylpiperazine] | 25.1 nM | < 5 µmol/kg | 
CCN1CCN(C(=O)c2cn(CC3CCCC3)c3c(OC)cccc23)CC1 [Example 2, 1-{[1-(Cyclopentylmethyl)-7-methoxy-1H-indol-3-yl]carbonyl}-4-ethylpiperazine] | 316 nM |  | 
CCN1CCN(C(=O)c2cn(Cc3ccccc3)c3c(OC)cccc23)CC1 [Ref. 3., 1-{[1-Benzyl-7-methoxy-1H-indol-3-yl]carbonyl}-4-ethylpiperazine, reference compound] | > 10000 nM |  | 
COc1cccc2c(C(=O)N3CCN(CCO)CC3)cn(CC3CCCCC3)c12 [Example 3C, 1-{[1-(Cyclohexylmethyl)-7-methoxy-1H-indol-3-yl]carbonyl}-4-(2-hydroxyethyl)piperazine] |  |  | 251 nM
COc1cccc2c(C(=O)N3CCN4CCCC[C@H]4C3)cn(CC3CCCCC3)c12 [Example 17A, (S)-2-{[1-(Cyclohexylmethyl)-7-methoxy-1H-indol-3-yl]carbonyl}-octahydro-2H-Pyrido[1,2-a]pyrazine] |  | < 5 µmol/kg | 12.6 nM
CN1CCN(C(=O)c2cn(CC3CCCCC3)c3cc(F)ccc23)CC1 [Example 5T, 1-{[1-(Cyclohexylmethyl)-6-fluoro-1H-indol-3-yl]carbonyl}-4-methylpiperazine] | 251 nM |  | 
CCN1CCN(C(=O)c2cn(C(C)C3CCCCC3)c3ccccc23)CC1 (single isomer, unassigned; (+)) [(+)-5I, (+)-1-{[1-(1-Cyclohexylethyl)-1H-indol-3-yl]carbonyl)-4-ethylpiperazine] | 79.4 nM |  | 
CCN1CCN(C(=O)c2cn(CCN3CCOCC3)c3c(OC)cccc23)CC1 [Ref. 2, 1-Ethyl-4-{[7-methoxy-1-[2-(4-morpholin-yl)ethyl]-1H-indol-3-y]carbonyl}-piperazine, reference compound] | > 10000 nM |  | 
COc1cccc2c(C(=O)N3CCN4CCC[C@H]4C3)cn(CC3CCCCC3)c12 [Example 17C, (S)-2-{[1-(Cyclohexylmethyl)-7-methoxy-1H-indol-3-yl]carbonyl}-octahydro-2H-Pyrrolo[1,2-a]pyrazine] |  | < 5 µmol/kg | 25.1 nM
COc1cccc2c(C(=O)N3CC(C)N(C)C(C)C3)cn(CC3CCCCC3)c12 (centres unmarked) [Example 15F, 1-{[1-(cyclohexylmethyl)-7-methoxy-1H-indol-3-yl]carbonyl}-3,4,5-trimethylpiperazine] | 31.6 nM | < 5 µmol/kg | 
